14 compounds from ChEMBL document CHEMBL1140620, “Development of integrase inhibitors for treatment of AIDS: an overview” (Eur J Med Chem, 2007) can be followed below.

The first test deals with T1, Human immunodeficiency virus type 1 integrase (Human immunodeficiency virus 1, UniProt Q7ZJM1). Description: Inhibition of HIV1 integrase strand transfer activity.
T1 sequence (Q7ZJM1 whole entry): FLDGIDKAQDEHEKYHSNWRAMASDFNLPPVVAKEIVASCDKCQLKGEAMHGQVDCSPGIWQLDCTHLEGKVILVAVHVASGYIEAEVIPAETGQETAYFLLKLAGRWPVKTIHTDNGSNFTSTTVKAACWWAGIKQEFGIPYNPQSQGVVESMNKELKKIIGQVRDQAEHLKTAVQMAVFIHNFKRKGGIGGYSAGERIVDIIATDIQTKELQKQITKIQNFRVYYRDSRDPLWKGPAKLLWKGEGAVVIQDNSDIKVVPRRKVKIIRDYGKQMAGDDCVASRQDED
For orientation: IC50 means the concentration that inhibits the measured activity by half. Lower therefore signals higher potency. As to `O=C(O)C(=O)CC(=O)c1cc(OCc2ccccc2)cc(OCc2ccccc2)c1`, half-maximal inhibition (IC50) required 3500 nM. Still for that read-out and setting: as for `COc1cccc(CN(Cc2cccc(OC)c2)c2ccc3nc(N)[nH]c3c2)c1`, the figure is 1800 nM; as for `N=C(N)c1ccc2cc(C#Cc3cccc(OCc4ccccc4)c3)ccc2c1`, 2100 nM; as for `N#C/C(=C(/O)C(=O)O)c1cn(-c2ccc(F)cc2)c2ccccc12`, 10000 nM. Take `CC(C)S(=O)(=O)Nc1ccc2nc(N)[nH]c2c1`: the IC50 came out at 2600 nM. This IC50 is about 3.8-fold lower than that of the compound before. On the same count and under the same terms, under `O=C(c1cc(Cc2ccccc2)cc(CN2CCCS2(=O)=O)c1)c1ncc2cccnc2c1O` stands 10000 nM; under `CC(C)(C)C1CCC(C2=NCCc3ccc([C@H]4CC4c4ccc5cc(C(=N)N)ccc5c4)cc32)CC1` (stereo not given in full), 3400 nM.

Another test addresses T1, Human immunodeficiency virus type 1 integrase. In words: Inhibition of HIV1 integrase.
With `O=C(O)c1cc2cc(O)c(O)cc2[nH]1`, the IC50 is below 10000 nM. The same measure, in the same setting: under `O=C1C(O)=C(O)C(O)=C2CC(O)=CC=CC12` (stereo not given) stands 2100 nM.

The target is the same in the next test. Description: Inhibition of HIV1 integrase-mediated 3'-end processing activity.
`O=C(O)C(=O)CC(=O)c1cc(OCc2ccccc2)cc(OCc2ccccc2)c1` had an IC50 of 200 nM. This lies in the sub-micromolar range.

The next test deals with Human immunodeficiency virus 1. In words: Antiviral activity against human immunodeficiency virus 1 in cell culture. It is filed as functional, organism-based.
For orientation: EC50 means the concentration needed to bring the measured effect to its halfway point. Low values mean a more potent agent, high ones a less potent agent. Regarding `COc1cc2c(cc1Cc1cccc(Cl)c1F)c(=O)c(C(=O)O)cn2[C@H](CO)C(C)C`, the EC50 stood at 0.9 nM.

For orientation: IC95 means the concentration at which the effect reaches the 95% level. Read a low IC95 as greater potency. `O=C(CC(=O)c1ccc(Cc2ccc(F)cc2)o1)c1nc[nH]n1` displayed an IC95 of 12000 nM.

As to `O=C(NCc1ccc(F)cc1)c1nc(N2CCCCS2(=O)=O)c2cccnc2c1O`, the concentration for an effect of 95% (IC95) is 100 nM. Turning to `O=C(/C=C/c1cccn1Cc1ccccc1)CC(=O)C(=O)O`, the response was half-maximal at 1500 nM (EC50). Consider `O=C(O)C(=O)CC(=O)c1cccn1Cc1ccc(F)cc1`, for which the IC95 worked out at 100 nM.
